Data reported in BindingDB's records for patent US10494376 (CTXT PTY. LTD., 2019).

Target: Protein arginine N-methyltransferase 5 (Homo sapiens, UniProt O14744)
Experiment: Revised Biochemical Assay
Procedure: Compounds of the invention may be tested for in vitro activity in the following assay: A histone H4 derived peptide is used as substrate (amino acid sequence: […]N H2). Full-length PRMT5 enzyme (NCBI Reference sequence NP_006100.2) was co-expressed with His6-MEP50 in insect cells and purified via Nickel immobilized metal affinity and gel filtration chromatography (the enzyme).The 6 μL reactions are run in Greiner brand black 384-well low volume assay plates. All reactions contained assay buffer (phosphate buffered saline, 0.01% (v/v) Tween-20, 0.01% (w/v) albumin from chicken egg white, 1 mM Dithiothreitol, 1 μM peptide substrate, 1 μM S-Adenosyl methionine, and 15 ng/reaction enzyme, with the enzyme being omitted from negative control reactions. Compounds were added in a volume of 100 nL from dilution series prepared in DMSO, positive and negative control reactions receiving the same volume DMSO without compound. The plates were sealed with adhesive seals and incubated for 4 hours at 37 degree Celsius. Reaction progress was measured using the Transcreener EPIGEN methyltransferase assay (BellBrook Labs, Madison, Wis.) as recommended by the manufacturer. To each reaction 2 μL detection mix were added, containing coupling enzymes, fluorescence polarisation tracer, and AMP antibody. […]

Protein arginine N-methyltransferase 5, sequence (O14744 whole entry): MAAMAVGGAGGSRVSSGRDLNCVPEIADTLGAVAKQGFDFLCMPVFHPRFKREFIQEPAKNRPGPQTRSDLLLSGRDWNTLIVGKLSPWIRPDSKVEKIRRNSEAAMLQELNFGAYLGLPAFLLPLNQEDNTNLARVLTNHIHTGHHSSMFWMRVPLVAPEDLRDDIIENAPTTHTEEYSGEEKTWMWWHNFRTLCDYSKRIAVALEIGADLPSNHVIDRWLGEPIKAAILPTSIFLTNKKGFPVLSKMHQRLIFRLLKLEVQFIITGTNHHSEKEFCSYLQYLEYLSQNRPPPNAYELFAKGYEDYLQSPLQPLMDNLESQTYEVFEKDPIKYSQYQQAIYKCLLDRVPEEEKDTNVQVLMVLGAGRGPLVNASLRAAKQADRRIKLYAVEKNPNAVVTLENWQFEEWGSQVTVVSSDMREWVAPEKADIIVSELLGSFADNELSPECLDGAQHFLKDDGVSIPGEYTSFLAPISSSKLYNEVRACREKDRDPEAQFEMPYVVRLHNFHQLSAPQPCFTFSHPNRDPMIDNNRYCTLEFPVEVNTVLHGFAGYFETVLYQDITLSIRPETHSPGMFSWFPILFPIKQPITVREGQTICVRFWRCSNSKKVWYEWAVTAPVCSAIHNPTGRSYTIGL

IC50: 11.7 µM
SMILES: COC(=O)N1CCC(N(C)C(=O)c2ccc(C(=O)NC[C@@H](O)[C@@H]3Cc4ccccc4CN3)cc2)CC1 [US10494376, Example 20]
